{
  "source": "patent US6420317B1",
  "about": "“Benzoylpyrazoles and their use as herbicides” (Aventis CropScience GmbH, priority 2000, dated 2002)",
  "assay_in_all_cases": "Post-emergence herbicidal action on harmful plants (greenhouse)",
  "type_in_all_cases": "in vivo",
  "conditions_in_all_cases": "50 g a.i./ha, visual scoring after about 3 to 4 weeks",
  "key": {"Chenopodium album": {"test_system": "Chenopodium album", "protocol": "(§1) 1. Post-emergence herbicidal action on harmful plants\n(§2) Seeds of monocotyledonous and dicotyledonous harmful plants are placed in sandy loam soil in cardboard pots, covered with soil and grown in a greenhouse under good growth conditions. Two to three weeks after sowing, the test plants are treated at the three-leaf stage. The compounds according to the invention which were formulated as wettable powders or emulsion concentrate are sprayed, at one of the dosages given in Tables 1 to 5, onto the surface of the green parts of the plants at an application rate of from 600 to 800 1 of water/ha (converted). After the test plants had remained in the greenhouse for about 3 to 4 weeks under optimum growth conditions, the effect of the preparations is scored visually by comparison with compounds disclosed in the prior art. As shown by the results of Comparative Tables 1 to 4, the selected compounds according to the invention have better herbicidal activity against a broad spectrum of economically important monocotyledonous and dicotyledonous harmful plants than the compounds disclosed in the prior art."}, "Polygonum convolvulus": {"test_system": "Polygonum convolvulus", "protocol": "as §1, §2"}, "Stellaria media": {"test_system": "Stellaria media", "protocol": "as §1, §2"}},
  "data": [
    {"smiles": "Cc1nn(C)c(O)c1C(=O)c1ccc(S(C)(=O)=O)cc1", "note": "[Compound S2]", "values": [
      {"measurement": "Damage to the harmful plants in % CHEAL", "setting": "Chenopodium album", "result": 0, "unit": "%"},
      {"measurement": "Damage to the harmful plants in % POLCO", "setting": "Polygonum convolvulus", "result": 10, "unit": "%"},
      {"measurement": "Damage to the harmful plants in % STEME", "setting": "Stellaria media", "result": 10, "unit": "%"}
    ]}
  ]
}
